Consider ten molecules from patent US4791139A, “Diphenyl ether derivatives and their use as insecticides” (Imperial Chemical Industries PLC, priority 1986, dated 1988).

SMILES strings stand for the structures.

Assay type in all cases: in vivo
For experiment [1], the system named is Diabrotica balteata (rootworm larvae). As to the kind of experiment: Residual test, rootworm larvae (DB), Filter paper/maize seed. The settings on record: 72 h, 3 days, read-out: DB grading of mortality. Summed up:
(§1)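 Acetone solution → diluted in 0.1% wetting agent/water to 100–500 ppm. Pests on host plant or food; treat pests and/or medium. Read: mortality, day 1–7.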

Experiment [2] deals with Nilaparvata lugens (brown plant hopper - nymphs). As to the kind of experiment: Contact test, brown plant hopper - nymphs (NL), Rice plant. The settings on record: 72 h, 3 days, read-out: NL grading of mortality. The procedure, abridged: as §1
Another experiment has as its system Myzus persicae (aphids). As to the kind of experiment: Contact test, aphids (MP), Chinese Cabbage leaf. The settings on record: 72 h, 3 days, read-out: MP grading of mortality. Summed up: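 Aphids on a host plant and/or the plant itself were treated with 100–500 ppm of product, applied from acetone diluted in water containing 0.1% SYNPERONIC NX wetting agent. Mortality was scored usually one to seven days after treatment.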

Experiment [3] deals with Blattella germanica (cockroach nymphs). As to the kind of experiment: Residual test, cockroach nymphs (BG), Plastic pot. The settings on record: 72 h, 3 days, read-out: BG grading of mortality. Summed up:
as §1

The test system of experiment [4] is Tetranychus urticae (spider mites - ova). As to the kind of experiment: Contact test, spider mites - ova (TUe), French bean leaf. The settings on record: 144 h, 6 days, read-out: TUE grading of mortality. The procedure, abridged: as §1
Experiment [5] relates to Tetranychus urticae (spider mites - adult). As to the kind of experiment: Contact test, spider mites - adult (TUa), French bean leaf. The settings on record: 72 h, 3 days, read-out: TUA grading of mortality. The procedure, abridged:
as §1

Experiment [6] has as its system Musca domestica (houseflies - adults). As to the kind of experiment: Knockdown test, houseflies - adults (MD/KD), Cotton wool/sugar. The settings on record: 4 hours, read-out: MD/KD grading of knockdown. Summed up: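 Product was dissolved in acetone and diluted with water containing 0.1% wetting agent to 100–500 ppm. The flies and/or their food medium were treated with the preparation. Mortality was scored 1–7 days after treatment, with an additional knockdown assessment for houseflies.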

For experiment [7], the system named is Spodoptera exigua (lesser army worm - larvae). As to the kind of experiment: Residual test, lesser army worm - larvae (SP), Cotton leaf. The settings on record: 72 h, 3 days, read-out: SP grading of mortality. The procedure, abridged: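 Compound dissolved in acetone and diluted in water with 0.1% Synperonic NX wetting agent to 100–500 ppm. Pests on host plant or food, with pests and/or medium treated. Mortality assessed 1–7 days after treatment and graded A (80–100%), B (50–79%) or C (<50%).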

Experiment [8] deals with Musca domestica (houseflies - adults). As to the kind of experiment: Contact test, houseflies - adults (MD), Cotton wool/sugar. The settings on record: 24 h, 1 day, read-out: MD grading of mortality. The procedure, abridged: as §1
Experiment [9] concerns Meloidogyne incognita (Tomato root knot eelworm - larvae). As to the kind of experiment: Residual test, Tomato root knot eelworm - larvae (MI), Semi in-vitro. The settings on record: 168 h, application rate is half that recorded, 7 days, read-out: MI grading of mortality; for mortality at 250 µg/mL: rate column 500 ppm; for mortality at 125 µg/mL: rate 250 ppm.
For experiment [10], the system named is Heliothis virescens (tobacco budworm - larvae). As to the kind of experiment: Residual test, tobacco budworm - larvae (HV), Cotton leaf. The settings on record: 72 h, read-out: HV grading of mortality. Summed up: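 Products applied as acetone solutions diluted in water with 0.1% wetting agent, at 100–500 ppm; pests on host plant or food, with pests and/or medium treated. Mortality or knockdown scored 1–7 days after treatment and graded A (80–100%), B (50–79%) or C (<50%).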

Regarding `Fc1ccc(C(CCCc2cccc(Oc3ccccc3)c2)C(F)(F)F)c(F)c1OC(F)(F)F` (racemic) [Compound 72, 1,1,1-Trifluoro-2-(2,4-difluoro-3-trifluoromethoxyphenyl)-5-(3-phenoxyphenyl)-pentane], the mortality (commonly the share of the test organisms that died) at 500 ppm is 80 to 100% in experiment [1]; 50 to 79% in experiment [2]; 80 to 100% in the experiment with Myzus persicae (aphids); 80 to 100% in [3]; less than 50% in [4]; 50 to 79% in experiment [5]. Further, the mortality at 500 ppm is 80 to 100% in experiment [7], less than 50% in experiment [8] and 80 to 100% in experiment [10]. The pest or weed control at 500 ppm in experiment [6] is less than 50%. Moreover, the mortality at 250 µg/mL in [9] is less than 50%.

As for `CCOc1ccc(C(CC=Cc2c(F)c(F)c(F)c(F)c2F)C(F)(F)F)cc1` (centres unmarked) [Compound 42, 1,1,1-Trifluoro-2-(4-ethoxyphenyl)-5-(pentafluorophenyl)pent-4-ene], the mortality at 500 ppm in experiment [1] is 80 to 100%; in experiment [2], less than 50%; with Myzus persicae (aphids) it was less than 50%; in [3], less than 50%; in experiment [4], less than 50%; in [5] it was less than 50%. The mortality at 500 ppm in [7], in experiment [8] and in [10] was less than 50% in each case. Besides, in [6], the pest or weed control at 500 ppm is less than 50%. The mortality at 250 µg/mL in [9] is less than 50%.

With `COCc1ccc(C(=CCCc2cccc(Oc3ccccc3)c2)C(F)(F)F)cc1` [Compound 44, 1,1,1-Trifluoro-2-(4-methoxymethylphenyl)-5-(3-phenoxyphenyl)-pent-2-ene], the mortality at 500 ppm in experiment [1] was less than 50%; in experiment [2], less than 50%; in the experiment on Myzus persicae (aphids), less than 50%; in experiment [3], less than 50%; in experiment [4], less than 50%; in experiment [5], 80 to 100%. Further, the mortality at 500 ppm in [7] was 50 to 79%; in [8] it was less than 50%; in [10] it was less than 50%. In addition, the pest or weed control at 500 ppm in experiment [6] is less than 50%. Moreover, the mortality at 250 µg/mL in experiment [9] was less than 50%.

Take `COc1ccc(C(=CCCc2cccc(Oc3ccccc3)c2)C(F)(F)F)cc1` [Compound 46, 1,1,1-Trifluoro-2-(4-methoxyphenyl)-5-(3-phenoxyphenyl)pent-2-ene]: the mortality at 500 ppm (in experiment [1]; in experiment [2]; in the experiment with Myzus persicae (aphids); in [3]; in [4]; in experiment [5]) was less than 50% each time. For the same molecule, the mortality at 500 ppm in [7] is less than 50%; in [8] it was less than 50%; in [10], 80 to 100%. Further, the pest or weed control at 500 ppm in experiment [6] is less than 50%. Also, the mortality at 250 µg/mL in experiment [9] was less than 50%.

Regarding `Fc1ccc(C(=CCCc2cccc(Oc3ccccc3)c2)C(F)(F)F)cc1` [Compound 47, 1,1,1-Trifluoro-2-(4-fluorophenyl)-5-(3-phenoxyphenyl)pent-2-ene], the mortality at 250 ppm in experiment [1] was 50 to 79%; in [2], less than 50%; in the experiment with Myzus persicae (aphids), less than 50%; in experiment [3] it was 50 to 79%; in experiment [4], less than 50%; in experiment [5] it was less than 50%. In addition, the mortality at 250 ppm was 50 to 79% in [7], less than 50% in experiment [8] and less than 50% in [10]. Further, the pest or weed control at 250 ppm in experiment [6] was less than 50%. In [9], the mortality at 125 µg/mL was 50 to 69%.

For the molecule `FC(F)(F)C(=CCCc1cccc(Oc2ccccc2)c1)c1ccc2c(c1)CCC2` [Compound 48, 1,1,1-Trifluoro-2-(5-indanyl)-5-(3-phenoxyphenyl)pent-2-ene], the mortality at 250 ppm is 50 to 79% in experiment [1]; less than 50% in experiment [2]; less than 50% with Myzus persicae (aphids); 50 to 79% in experiment [3]; less than 50% in [4]; less than 50% in experiment [5]. The mortality at 250 ppm in experiment [7], in [8] and in [10] was less than 50% throughout. Also, the pest or weed control at 250 ppm in experiment [6] was less than 50%. Also, the mortality at 125 µg/mL in [9] is less than 50%.

Consider `CCOc1ccc(C(=CCCc2cccc(Oc3ccccc3)c2)C(F)(F)F)cc1F` [Compound 50, 1,1,1-Trifluoro-2-(3-fluoro-4-ethoxyphenyl)-5-(3-phenoxyphenyl)-pent-2-ene], for which the mortality at 450 ppm in experiment [1] (450 ppm) is 80 to 100%; in experiment [2] (450 ppm) it was less than 50%; in the experiment on Myzus persicae (aphids) (450 ppm), 80 to 100%; in [3] (450 ppm), 80 to 100%; in experiment [4] (450 ppm), less than 50%; in experiment [5] (450 ppm), less than 50%. In addition, the mortality at 450 ppm in experiment [7] (450 ppm), in experiment [8] (450 ppm) and in [10] was 80 to 100% in each case. The pest or weed control at 450 ppm in experiment [6] (450 ppm) was in the range of 80 to 100%. The mortality at 225 µg/mL in experiment [9] (rate column 450 ppm) is less than 50%.

Take `CCOc1c(F)cc(C(=CCCc2cccc(Oc3ccccc3)c2)C(F)(F)F)cc1F` [Compound 51, 1,1,1-Trifluoro-2-(3,5-difluoro-4-ethoxyphenyl)-5-(3-phenoxyphenyl)pent-2-ene]: the mortality at 500 ppm in [1] was 80 to 100%; in experiment [2], less than 50%; with Myzus persicae (aphids), 80 to 100%; in [3] it was 80 to 100%; in [4] it was less than 50%; in [5] it was less than 50%. Also, the mortality at 500 ppm in experiment [7], in experiment [8] and in experiment [10] was 80 to 100% throughout. Also, the pest or weed control at 500 ppm in experiment [6] lay in the range of 80 to 100%. Further, the mortality at 250 µg/mL in experiment [9] was less than 50%.

Regarding `CC1(C)Oc2ccc(C(CCCc3cccc(Oc4ccccc4)c3)C(F)(F)F)cc2O1` (centres unmarked) [Compound 58, 1,1,1-Trifluoro-2-[3,4-(dimethylmethylenedioxy)phenyl]-5-(3-phenoxyphenyl)pentane], the mortality at 500 ppm in experiment [1] was 80 to 100%; in [2], 80 to 100%; in the experiment on Myzus persicae (aphids), 50 to 79%; in experiment [3] it was 80 to 100%; in experiment [4], 80 to 100%; in experiment [5], less than 50%. In addition, the mortality at 500 ppm in experiment [7] is 50 to 79%; in experiment [8] it was 80 to 100%; in [10], less than 50%. Besides, the pest or weed control at 500 ppm in experiment [6] was in the range of 80 to 100%. Also, in experiment [9], the mortality at 250 µg/mL is less than 50%.

Turning to `CC1Oc2ccc(C(CCCc3cccc(Oc4ccccc4)c3)C(F)(F)F)cc2O1` (centres unmarked) [Compound 61, 1,1,1-Trifluoro-2-[3,4-(methylmethylenedioxy)-phenyl]-5-(3-phenoxyphenyl)pentane], the mortality at 500 ppm in [1] was 80 to 100%; in experiment [2] it was 80 to 100%; with Myzus persicae (aphids), 80 to 100%; in [3], 80 to 100%; in experiment [4], less than 50%; in experiment [5], less than 50%. Besides, the mortality at 500 ppm in experiment [7], in [8] and in experiment [10] was 80 to 100% in each case. In addition, the pest or weed control at 500 ppm in [6] lay in the range of 80 to 100%. Besides, the mortality at 250 µg/mL in experiment [9] is less than 50%.
